Reference: patent US12433876B2, “Septin inhibitors for treatment of cancers” (UNIVERSITY OF ROCHESTER, priority 2019, dated 2025)

What was measured:
HE4 = HE4 ELISA, secreted and intracellular levels; format: cell-based, human
Method: Cell lines, Culture, and Reagents. Cells were maintained in either DMEM (SKOV-3, KLE, OVCAR-3, OVCAR8-C5 and IGROV-1) or RPMI-1640 (ECC-1 and HCH-1), supplemented with 10% fetal calf serum (or 20% for OVCAR-3), penicillin (100 units/mL), and streptomycin (100 μg/mL) at 37° C. with 5% CO2 in a humidified incubator. Antibodies were purchased from Abcam (septin-2; ab179436) and Cell Signaling Technology; ERK (9102), p-ERK (4370), -actin (3700), u-Tubulin (2144), EGFR (4267) and HER2 (4290). FCF was purchased from Abcam. All other chemicals were from Sigma Aldrich. Synthesis of Derivaties. […] The reaction was monitored using thin-layer chromatography plates with DCM-MeOH or pure ethyl acetate as eluent. Spots were monitored in a UV chamber. The reaction mixture, upon completion of the reaction, was poured into wet ice mixture and triturated, then the separated solid was filtered by vacuum. The product was washed with hexane, followed by diethyl ether, and was dried under vacuum. The compounds were characterized by spectrophotometric techniques. Quantitative Real-Time PCR. The indicated cell lines were transfected with siRNA targeting septin-2 or non-targeting control siRNA (Santa Cruz Biotechnology: sc-37007 or sc-40936) using Lipofectamine 3000 (Invitrogen). Tri reagent and Direct-zol kit (Zymo Research) were used to lyse and isolate total RNA. Reverse transcription was performed using iScript cDNA synthesis kit (BioRad), both following the manufacturer's recommendations. Quantitative real-time PCR was conducted using QuantStudio 12 K Flex Real-Time PCR System (ABI) and the Taqman Gene Expression Assay (ABI) consisting of the FAM-labeled probes as follows: SEPT2 (Hs01565417_ml); WFDC2 (Hs00899484_ml); TBP (Hs00427620_ml) or B2M (Hs00187842_ml), which was used as reference for normalization. Cell Viability, Proliferation and Apoptosis Assay. Cell viability, proliferation, and cellular apoptosis were measured using the MTS (Promega), BrdU cell proliferation (Cell Signaling Technology), and Caspase-Glo 3/7 apoptosis detection (Promega) assays, following the respective manufacturer's recommendations with suitable modification. Enzyme-Linked Immunosorbent Assay (ELISA) and Immunoblotting. Cells were maintained overnight in the culture media described above. […] Following the treatment, cell lysates and supernatants were collected and subjected to HE4 assay (Human HE4 Quantikine ELISA Kit, R&D Systems). The amount of HE4 in supernatant was normalized to the protein concentration of matching cell lysate. The levels of HER2 were determined by Human Total ErbB2/Her2 DuoSet IC ELISA (R&D systems. Wester blot analysis was conducted using the protocol previously published (see Kim, K. K. et al. Tetrathiomolybdate inhibits mitochondrial complex IV and mediates degradation of hypoxia-inducible factor-1alpha in cancer cells. Sci. Rep. 5, 14296, 2015). Data Acquisition and Statistical Analysis. Gene expression profiling of septins, comparing microdissected normal ovarian stroma (N=8) against that of tumor stroma samples (N=31) from high grade serous ovarian cancer patients, was obtained from Mixed Ovarian Cancer (CAFs)-Wong-77-u133p2 data-set through ‘R2: Genomics Analysis and Visualization Platform (http://r2/am/n1). […] Survival curves between septin high and low population and their statistical significance were analyzed using GraphPad Prism software (Mantel-Cox test). […]

HE4 mRNA = test: HE4 expression by real time PCR; format: cell-based; conditions: ECC-1, 300 μM, 5 hours, normalized to B2M
Method: (§1) Cell lines, Culture, and Reagents. Cells were maintained in either DMEM (SKOV-3, KLE, OVCAR-3, OVCAR8-C5 and IGROV-1) or RPMI-1640 (ECC-1 and HCH-1), supplemented with 10% fetal calf serum (or 20% for OVCAR-3), penicillin (100 units/mL), and streptomycin (100 μg/mL) at 37° C. with 5% CO2 in a humidified incubator. Antibodies were purchased from Abcam (septin-2; ab179436) and Cell Signaling Technology; ERK (9102), p-ERK (4370), -actin (3700), u-Tubulin (2144), EGFR (4267) and HER2 (4290). FCF was purchased from Abcam. All other chemicals were from Sigma Aldrich. Synthesis of Derivaties. […] The reaction was monitored using thin-layer chromatography plates with DCM-MeOH or pure ethyl acetate as eluent. Spots were monitored in a UV chamber. […] Quantitative Real-Time PCR. […] Quantitative real-time PCR was conducted using QuantStudio 12 K Flex Real-Time PCR System (ABI) and the Taqman Gene Expression Assay (ABI) consisting of the FAM-labeled probes as follows: SEPT2 (Hs01565417_ml); WFDC2 (Hs00899484_ml); TBP (Hs00427620_ml) or B2M (Hs00187842_ml), which was used as reference for normalization. […] Cell viability, proliferation, and cellular apoptosis were measured using the MTS (Promega), BrdU cell proliferation (Cell Signaling Technology), and Caspase-Glo 3/7 apoptosis detection (Promega) assays, following the respective manufacturer's recommendations with suitable modification. […]

ECC-1 cells = test: Caspase-3/7 activity apoptosis assay; format: cell-based; conditions: ECC-1, 33 μM, 48 hours
Method: as §1

septin-2 = biological target: T1, septin-2 (Homo sapiens, UniProt Q15019); test: Immunoblot of septin-2 expression; format: cell-based; conditions: 48 hours
T1 sequence (Q15019 1-361): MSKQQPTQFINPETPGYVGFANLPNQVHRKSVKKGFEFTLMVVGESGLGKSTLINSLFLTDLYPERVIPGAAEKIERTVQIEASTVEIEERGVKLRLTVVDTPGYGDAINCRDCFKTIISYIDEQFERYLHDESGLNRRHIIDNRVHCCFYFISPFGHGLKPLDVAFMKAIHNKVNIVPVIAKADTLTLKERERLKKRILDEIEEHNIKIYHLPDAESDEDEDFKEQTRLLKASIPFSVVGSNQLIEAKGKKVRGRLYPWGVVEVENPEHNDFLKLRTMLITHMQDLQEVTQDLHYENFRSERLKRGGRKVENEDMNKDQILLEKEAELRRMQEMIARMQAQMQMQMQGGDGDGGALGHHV

septin-7 = test: Immunoblot of septin-7 expression; format: cell-based; conditions: PANC-1, 1.0 and 10.0 μM, 48 hours
JIMT1 xenograft tumors = test: JIMT1 xenograft tumor growth; format: in vivo, NSG mice; conditions: 25 mg/kg IP, 28 days
[1] = test system: JIMT-1 breast cancer cells; test: RNA-Seq whole transcriptome analysis, JIMT-1; format: cell-based, human; conditions: 10 nM Afatinib, 1 μM UR214-9

Row | septin-2 expression (immunoblot) (septin-2; PANC-1, 1.0 and 10.0 μM) | SMILES | HE4 secretion (HE4; ECC-1 and HCH-1 cells, 5 hours) | HE4 secretion (HE4; OVCAR8-C5, 300 μM for 7 h) | intracellular levels of HE4 (HE4; OVCAR8-C5, 300 μM for 7 h) | HE4 mRNA (HE4 mRNA) | apoptosis (caspase-3/7 activity) (ECC-1 cells) | septin-2 protein expression levels (western blot) (septin-2; MDA-MB-231, JIMT-1 and MCF-7 cells, 10 and 30 μM) | septin-7 expression (immunoblot) (septin-7) | xenograft tumor growth (tumor volume and weight) (JIMT1 xenograft tumors) | dysregulated genes, down [1] | dysregulated genes, up [1]
1 | – | O=C(Nc1ccccc1)Nc1ccnc(Cl)c1 [FCF, N-(2-chloro-4-pyridyl)-N′-phenylurea, reference compound] | dose-dependent | decrease in HE4 secretion | marginal increase | suppress HE4 mRNA to some extent | – | – | – | – | – | –
2 | unaffected | O=C(Nc1cc(Cl)nc(Cl)c1)Nc1cccc(SC(F)(F)F)c1F [UR214-9] | – | – | – | – | much more effective | does not alter the protein expression levels | unaffected | significant growth control | 4 | 7
